What is called IC50 is the concentration that inhibits the measured activity by half. The low end stands for greater potency in that assay, the high end for weaker potency in that assay.

A value given as a limit tells only on which side of the number the result lay.

This note sets out measurements from patent publication US20080075695A1, “COMBINATION THERAPY METHOD FOR TREATING HEPATITIS C VIRUS INFECTION AND PHARMACEUTICAL COMPOSITIONS FOR USE THEREIN” (priority 2006, published 2008).

The subject of assay [1] is HCV. The experiment in a line: Phase 1b clinical trial (MAD study), plasma HCV RNA. The settings on record: for MEAN Δ change from baseline (log HCV RNA level): on-therapy analysis. In kind it is in vivo, human.
Source text: A 14 day randomized, double-blind, placebo-controlled, sequential-group study of multiple ascending doses (MAD) included subjects with chronic HCV infection who were naïve to treatment. Subjects were enrolled in sequential, ascending dose cohorts with a target of 16 subjects (12 subjects receiving the BZF and 4 receiving placebo in each cohort). The first cohorts assessed the effect of the BZF as monotherapy compared to placebo. Subsequent cohorts were comprised of subjects who received pegylated interferon alfa-2b (PEG-Intron; 1.5 μg/kg/dose) administered subcutaneously on days −1 and 7 in combination with either placebo or the BZF administered orally (100 mg, 250 mg, 500 mg or 1000 mg every 12 hours, in combinations of 25 mg or 200 mg capsules) from days 1 to 14. […] The mean viral load for each treatment group at study entry was >6.0 log 10 UI/ml HCV RNA.
The target in assay [2] is T1, HCV NS5B protein (genotype 1b, BB7) (Hepatitis C virus genotype 1b, UniProt Q9WMX2).
T1 construct: of which the carboxyl terminal 21 amino acids were removed to enhance its solubility; made in house; host or cells: E. coli
Put plainly: Inhibition of viral RNA-dependent RNA polymerase (RdRp). The settings on record: purified HCV NS5B, C-terminal 21 amino acids removed. In kind it is biochemical. The source says:
The HCV NS5B-directed RdRp activity was established and characterized in a standard in vitro biochemical assay using a purified HCV NS5B protein derived from the consensus sequence of a patient infected with HCV genotype 1b virus (BB7). (See Blight K J et al., Science. 2000, 290:1972-4). The NS5B consensus sequence was cloned and expressed in E. coli as a histidine tagged ([…]) fusion protein, of which the carboxyl terminal 21 amino acids were removed to enhance its solubility.
In addition to evaluating its activity in the replicon assay, as described above, the BZF of Example 1 was also evaluated for antiviral activity using this assay.

Where [3] appears, read: Day 14, BZF 100 mg, all genotypes.
Setting [4] is: Day 14, BZF 250 mg, all genotypes.
The mark [5] stands for this setting: Day 14, BZF 500 mg, all genotypes.
Setting [6] is: Day 14, BZF 1000 mg, all genotypes.

With `CNC(=O)c1c(-c2ccc(F)cc2)oc2cc(N(CCO)S(C)(=O)=O)c(C3CC3)cc12` [BZF, 5-cyclopropyl-2-(4-fluoro-phenyl)-6-[(2-hydroxy-ethyl)-methanesulfonyl-amino]-benzofuran-3-carboxylic acid methylamide], the “MEAN Δ change from baseline (log HCV RNA level)” value in assay [1] (Day 4, BZF 500 mg every 12 hours, all genotypes) is −1.43 log; in assay [1] (Day 7, BZF 500 mg every 12 hours, all genotypes) it was −1.30 log; in assay [1] (Day 14, BZF 500 mg every 12 hours, all genotypes), −0.64 log. The “% Subjects BQL (below quantification limits, <50 IU/mL)” value in assay [1] (setting [3]) is on record as 0%; in assay [1] (setting [4]), 0%; in assay [1] (setting [5]) it was 0%; in assay [1] (Day 14, BZF 500 mg, genotype 1) it was 0%; in assay [1] (setting [6]), 0%. Further, the “% Subjects with ≧1.5 log ↓ in log10 HCV RNA” value in assay [1] (setting [3]) was 2 (17%); in assay [1] (setting [4]), 0%; in assay [1] (setting [5]), 1 (8%); in assay [1] (Day 14, BZF 500 mg, genotype 1), 1 (13%); in assay [1] (setting [6]) it was 2 (17%). In addition, the “% Subjects with ≧2 log ↓ in log10 HCV RNA” value is on record as 0% in assay [1] (setting [3]); 0% in assay [1] (setting [4]); 1 (8%) in assay [1] (setting [5]); 1 (13%) in assay [1] (Day 14, BZF 500 mg, genotype 1); 2 (17%) in assay [1] (setting [6]). Also, the “% Subjects with ≧3 log ↓ in log10 HCV RNA” value in assay [1] (setting [3]) was 0%; in assay [1] (setting [4]), 0%; in assay [1] (setting [5]), 0%; in assay [1] (Day 14, BZF 500 mg, genotype 1), 0%; in assay [1] (setting [6]) it was 1 (8%). The IC50 in assay [2] was under 500 nM.
